Experimental data as given in ChEMBL document CHEMBL2380302, “Synthesis of 3-O-propargylated betulinic acid and its 1,2,3-triazoles as potential apoptotic agents” (Eur J Med Chem, 2013).

Columns and labels:
A549 [1] = assay: Cytotoxicity against human A549 cells at 50 uM after 48 hrs by SRB assay; assay type: functional; conditions: A549, 48 h, read-out: GI
MCF7 [2] = assay: Cytotoxicity against human MCF7 cells at 50 uM after 48 hrs by SRB assay; assay type: functional; conditions: MCF7, 48 h, read-out: GI
HEp-2 [3] = assay: Cytotoxicity against human Hep2 cells at 50 uM after 48 hrs by SRB assay; assay type: functional; conditions: HEp-2, 48 h, read-out: GI
HCT-15 [4] = assay: Cytotoxicity against human HCT15 cells after 48 hrs by SRB assay; assay type: functional, cell-based; conditions: HCT-15, 48 h
A549 [5] = assay: Cytotoxicity against human A549 cells at 10 uM after 48 hrs by SRB assay; assay type: functional; conditions: A549, 48 h, read-out: GI
MCF7 [6] = assay: Cytotoxicity against human MCF7 cells at 30 uM after 48 hrs by SRB assay; assay type: functional; conditions: MCF7, 48 h, read-out: GI
PC-3 [7] = assay: Cytotoxicity against human PC3 cells at 30 uM after 48 hrs by SRB assay; assay type: functional; conditions: PC-3, 48 h, read-out: GI
PC-3 [8] = assay: Cytotoxicity against human PC3 cells at 10 uM after 48 hrs by SRB assay; assay type: functional; conditions: PC-3, 48 h, read-out: GI
HCT-15 [9] = assay: Cytotoxicity against human HCT15 cells at 30 uM after 48 hrs by SRB assay; assay type: functional; conditions: HCT-15, 48 h, read-out: GI
THP-1 [10] = assay: Cytotoxicity against human THP1 cells at 30 uM after 48 hrs by SRB assay; assay type: functional; conditions: THP-1, 48 h, read-out: GI
A549 [11] = assay: Cytotoxicity against human A549 cells at 30 uM after 48 hrs by SRB assay; assay type: functional; conditions: A549, 48 h, read-out: GI
SF-295 [12] = assay: Cytotoxicity against human SF295 cells at 30 uM after 48 hrs by SRB assay; assay type: functional; conditions: SF-295, 48 h, read-out: GI
HL-60 [13] = assay: Cytotoxicity against human HL60 cells at 10 uM after 48 hrs by SRB assay; assay type: functional; conditions: HL-60, 48 h, read-out: GI
PC-3 [14] = assay: Cytotoxicity against human PC3 cells at 50 uM after 48 hrs by SRB assay; assay type: functional; conditions: PC-3, 48 h, read-out: GI
HCT-15 [15] = assay: Cytotoxicity against human HCT15 cells at 50 uM after 48 hrs by SRB assay; assay type: functional; conditions: HCT-15, 48 h, read-out: GI
DU-145 [16] = assay: Cytotoxicity against human DU145 cells at 30 uM after 48 hrs by SRB assay; assay type: functional; conditions: DU-145, 48 h, read-out: GI
DU-145 [17] = assay: Cytotoxicity against human DU145 cells at 10 uM after 48 hrs by SRB assay; assay type: functional; conditions: DU-145, 48 h, read-out: GI
THP-1 [18] = assay: Cytotoxicity against human THP1 cells after 48 hrs by SRB assay; assay type: functional, cell-based; conditions: THP-1, 48 h
THP-1 [19] = assay: Cytotoxicity against human THP1 cells at 10 uM after 48 hrs by SRB assay; assay type: functional; conditions: THP-1, 48 h, read-out: GI
DU-145 [20] = assay: Cytotoxicity against human DU145 cells at 50 uM after 48 hrs by SRB assay; assay type: functional; conditions: DU-145, 48 h, read-out: GI
PC-3 [21] = assay: Cytotoxicity against human PC3 cells after 48 hrs by SRB assay; assay type: functional, cell-based; conditions: PC-3, 48 h
HL-60 [22] = assay: Cytotoxicity against human HL60 cells at 30 uM after 48 hrs by SRB assay; assay type: functional; conditions: HL-60, 48 h, read-out: GI
HCT-15 [23] = assay: Cytotoxicity against human HCT15 cells at 10 uM after 48 hrs by SRB assay; assay type: functional; conditions: HCT-15, 48 h, read-out: GI
MCF7 [24] = assay: Cytotoxicity against human MCF7 cells after 48 hrs by SRB assay; assay type: functional, cell-based; conditions: MCF7, 48 h
DU-145 [25] = assay: Cytotoxicity against human DU145 cells after 48 hrs by SRB assay; assay type: functional, cell-based; conditions: DU-145, 48 h
MCF7 [26] = assay: Cytotoxicity against human MCF7 cells at 10 uM after 48 hrs by SRB assay; assay type: functional; conditions: MCF7, 48 h, read-out: GI
THP-1 [27] = assay: Cytotoxicity against human THP1 cells at 50 uM after 48 hrs by SRB assay; assay type: functional; conditions: THP-1, 48 h, read-out: GI
A549 [28] = assay: Cytotoxicity against human A549 cells after 48 hrs by SRB assay; assay type: functional, cell-based; conditions: A549, 48 h
SF-295 [29] = assay: Cytotoxicity against human SF295 cells at 50 uM after 48 hrs by SRB assay; assay type: functional; conditions: SF-295, 48 h, read-out: GI
HL-60 [30] = assay: Cytotoxicity against human HL60 cells after 48 hrs by SRB assay; assay type: functional, cell-based; conditions: HL-60, 48 h
HEp-2 [31] = assay: Cytotoxicity against human Hep2 cells at 30 uM after 48 hrs by SRB assay; assay type: functional; conditions: HEp-2, 48 h, read-out: GI
SF-295 [32] = assay: Cytotoxicity against human SF295 cells at 10 uM after 48 hrs by SRB assay; assay type: functional; conditions: SF-295, 48 h, read-out: GI
HEp-2 [33] = assay: Cytotoxicity against human Hep2 cells at 10 uM after 48 hrs by SRB assay; assay type: functional; conditions: HEp-2, 48 h, read-out: GI
HEp-2 [34] = assay: Cytotoxicity against human Hep2 cells after 48 hrs by SRB assay; assay type: functional, cell-based; conditions: HEp-2, 48 h
HL-60 [35] = assay: Cytotoxicity against human HL60 cells at 50 uM after 48 hrs by SRB assay; assay type: functional; conditions: HL-60, 48 h, read-out: GI
SF-295 [36] = assay: Cytotoxicity against human SF295 cells after 48 hrs by SRB assay; assay type: functional, cell-based; conditions: SF-295, 48 h

C=C(C)[C@@H]1CC[C@]2(C(=O)O)CC[C@]3(C)[C@H](CC[C@@H]4[C@@]5(C)CC[C@H](OCc6cn(-c7ccccc7CO)nn6)C(C)(C)[C@@H]5CC[C@]43C)[C@@H]12
inhibition of growth at 50 µM (A549 [1]): 57% | inhibition of growth at 50 µM (MCF7 [2]): 80% | inhibition of growth at 50 µM (HEp-2 [3]): 64% | IC50 (HCT-15 [4]): 10 µM | inhibition of growth at 10 µM (A549 [5]): 54% | inhibition of growth at 30 µM (MCF7 [6]): 72% | inhibition of growth at 30 µM (PC-3 [7]): 28% | inhibition of growth at 10 µM (PC-3 [8]): 10% | inhibition of growth at 30 µM (HCT-15 [9]): 80% | inhibition of growth at 30 µM (THP-1 [10]): 65% | inhibition of growth at 30 µM (A549 [11]): 55% | inhibition of growth at 30 µM (SF-295 [12]): 72% | inhibition of growth at 10 µM (HL-60 [13]): 50% | inhibition of growth at 50 µM (PC-3 [14]): 52% | inhibition of growth at 50 µM (HCT-15 [15]): 82% | inhibition of growth at 30 µM (DU-145 [16]): 55% | inhibition of growth at 10 µM (DU-145 [17]): 43% | IC50 (THP-1 [18]): 15 µM | inhibition of growth at 10 µM (THP-1 [19]): 45% | inhibition of growth at 50 µM (DU-145 [20]): 65% | IC50 (PC-3 [21]): 49 µM | inhibition of growth at 30 µM (HL-60 [22]): 69% | inhibition of growth at 10 µM (HCT-15 [23]): 50% | IC50 (MCF7 [24]): 10 µM | IC50 (DU-145 [25]): 16 µM | inhibition of growth at 10 µM (MCF7 [26]): 50% | inhibition of growth at 50 µM (THP-1 [27]): 78% | IC50 (A549 [28]): 14 µM | inhibition of growth at 50 µM (SF-295 [29]): 77% | IC50 (HL-60 [30]): 10 µM | inhibition of growth at 30 µM (HEp-2 [31]): 61% | inhibition of growth at 10 µM (SF-295 [32]): 35% | inhibition of growth at 10 µM (HEp-2 [33]): 45% | IC50 (HEp-2 [34]): 14 µM | inhibition of growth at 50 µM (HL-60 [35]): 80% | IC50 (SF-295 [36]): 17 µM

C=C(C)[C@@H]1CC[C@]2(C(=O)O)CC[C@]3(C)[C@H](CC[C@@H]4[C@@]5(C)CC[C@H](OCc6cn(-c7ccc(Cl)cc7)nn6)C(C)(C)[C@@H]5CC[C@]43C)[C@@H]12
inhibition of growth at 50 µM (A549 [1]): 83% | inhibition of growth at 50 µM (MCF7 [2]): 80% | inhibition of growth at 50 µM (HEp-2 [3]): 55% | IC50 (HCT-15 [4]): 13 µM | inhibition of growth at 10 µM (A549 [5]): 52% | inhibition of growth at 30 µM (MCF7 [6]): 63% | inhibition of growth at 30 µM (PC-3 [7]): 40% | inhibition of growth at 10 µM (PC-3 [8]): 22% | inhibition of growth at 30 µM (HCT-15 [9]): 53% | inhibition of growth at 30 µM (THP-1 [10]): 69% | inhibition of growth at 30 µM (A549 [11]): 59% | inhibition of growth at 30 µM (SF-295 [12]): 20% | inhibition of growth at 10 µM (HL-60 [13]): 61% | inhibition of growth at 50 µM (PC-3 [14]): 53% | inhibition of growth at 50 µM (HCT-15 [15]): 66% | inhibition of growth at 30 µM (DU-145 [16]): 43% | inhibition of growth at 10 µM (DU-145 [17]): 28% | IC50 (THP-1 [18]): 10 µM | inhibition of growth at 10 µM (THP-1 [19]): 50% | inhibition of growth at 50 µM (DU-145 [20]): 55% | IC50 (PC-3 [21]): 43 µM | inhibition of growth at 30 µM (HL-60 [22]): 74% | inhibition of growth at 10 µM (HCT-15 [23]): 46% | IC50 (MCF7 [24]): 15 µM | IC50 (DU-145 [25]): 34 µM | inhibition of growth at 10 µM (MCF7 [26]): 42% | inhibition of growth at 50 µM (THP-1 [27]): 94% | IC50 (A549 [28]): 8 µM | inhibition of growth at 50 µM (SF-295 [29]): 32% | IC50 (HL-60 [30]): 5.5 µM | inhibition of growth at 30 µM (HEp-2 [31]): 43% | inhibition of growth at 10 µM (SF-295 [32]): 5% | inhibition of growth at 10 µM (HEp-2 [33]): 28% | IC50 (HEp-2 [34]): 44 µM | inhibition of growth at 50 µM (HL-60 [35]): 96% | IC50 (SF-295 [36]): > 50 µM

C=C(C)[C@@H]1CC[C@]2(C(=O)O)CC[C@]3(C)[C@H](CC[C@@H]4[C@@]5(C)CC[C@H](OCc6cn(-c7cccc(I)c7)nn6)C(C)(C)[C@@H]5CC[C@]43C)[C@@H]12
inhibition of growth at 50 µM (A549 [1]): 33% | inhibition of growth at 50 µM (MCF7 [2]): 61% | inhibition of growth at 50 µM (HEp-2 [3]): 72% | IC50 (HCT-15 [4]): 39 µM | inhibition of growth at 10 µM (A549 [5]): 28% | inhibition of growth at 30 µM (MCF7 [6]): 58% | inhibition of growth at 30 µM (PC-3 [7]): 24% | inhibition of growth at 10 µM (PC-3 [8]): 8% | inhibition of growth at 30 µM (HCT-15 [9]): 45% | inhibition of growth at 30 µM (THP-1 [10]): 41% | inhibition of growth at 30 µM (A549 [11]): 27% | inhibition of growth at 30 µM (SF-295 [12]): 27% | inhibition of growth at 10 µM (HL-60 [13]): 13% | inhibition of growth at 50 µM (PC-3 [14]): 27% | inhibition of growth at 50 µM (HCT-15 [15]): 54% | inhibition of growth at 30 µM (DU-145 [16]): 62% | inhibition of growth at 10 µM (DU-145 [17]): 23% | IC50 (THP-1 [18]): 46 µM | inhibition of growth at 10 µM (THP-1 [19]): 9% | inhibition of growth at 50 µM (DU-145 [20]): 62% | IC50 (PC-3 [21]): 39 µM | inhibition of growth at 30 µM (HL-60 [22]): 45% | inhibition of growth at 10 µM (HCT-15 [23]): 29% | IC50 (MCF7 [24]): 8 µM | IC50 (DU-145 [25]): 25 µM | inhibition of growth at 10 µM (MCF7 [26]): 51% | inhibition of growth at 50 µM (THP-1 [27]): 56% | IC50 (A549 [28]): > 50 µM | inhibition of growth at 50 µM (SF-295 [29]): 66% | IC50 (HL-60 [30]): 43 µM | inhibition of growth at 30 µM (HEp-2 [31]): 74% | inhibition of growth at 10 µM (SF-295 [32]): 6% | inhibition of growth at 10 µM (HEp-2 [33]): 71% | IC50 (HEp-2 [34]): 3.8 µM | inhibition of growth at 50 µM (HL-60 [35]): 64% | IC50 (SF-295 [36]): 44 µM
